Measured values reported in ChEMBL document CHEMBL1201862, “PubChem BioAssay data set” (2004).
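Values below derive from 48-hour exposures of cells grown in 96-well plates, with endpoints linearly interpolated between the two concentrations bracketing the appropriate inhibition level. Abbreviation: GI50, concentration required for 50% inhibition of growth.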 Activity calls are given as the source filed them. Cut-off read from the data, not from the text of the source: active = GI50 up to about 1.1 µM and inactive = higher.

Assays:
Experiment in all cases: growth of human tumour cells (NCI), 48 h
[1] = test system: NCI-H522
[2] = test system: SF-295
[3] = test system: SN12C
[4] = test system: HT-29
[5] = test system: OVCAR-4
[6] = test system: UACC-257
[7] = test system: HL-60
[8] = test system: LOX IMVI
[9] = test system: RXF 393
[10] = test system: ACHN
[11] = test system: HCT-116
[12] = test system: NCI/ADR-RES
[13] = test system: TK-10
[14] = test system: MOLT-4
[15] = test system: UO-31
[16] = test system: LXFL 529
[17] = test system: CCRF-CEM
[18] = test system: HCT-15
[19] = test system: MDA-N
[20] = test system: CAKI-1

## CCCCCCCCCCCC[C@@H](O)[C@H]1CC[C@H]([C@H](O)CCCC[C@H](O)CCCCC[C@@H](O)CC2=C[C@H](C)OC2=O)O1
[1]
  GI50: 0.565 µM (active)
[2]
  GI50: < 0.0486 µM (active)
[3]
  GI50: 3.78 µM (inactive)
[4]
  GI50: 2.1 µM (inactive)
[5]
  GI50: 0.931 µM (active)
[6]
  GI50: 0.0168 µM (active)
[7]
  GI50: 0.103 µM (active)
[8]
  GI50: 1.19 µM (inactive)
[9]
  GI50: 3.55 µM (inactive)
[10]
  GI50: 0.116 µM (active)
[11]
  GI50: 0.135 µM (active)
[12]
  GI50: 1.25 µM (inactive)
[13]
  GI50: 3.07 µM (inactive)
[14]
  GI50: 0.363 µM (active)
[15]
  GI50: 1.05 µM (active)
[16]
  GI50: 1.84 µM (inactive)
[17]
  GI50: 1.18 µM (inactive)
[18]
  GI50: 2.39 µM
[19]
  GI50: 2.08 µM (inactive)
[20]
  GI50: 2.64 µM (inactive)

## CC1(C)CC(=O)C(/C(=N/NC(=S)NN)C(=O)Nc2nc3ccc([N+](=O)[O-])cc3s2)C(=O)C1
[1]
  GI50: > 100 µM (inactive)
[2]
  GI50: > 100 µM (inactive)
[3]
  GI50: > 100 µM (inactive)
[4]
  GI50: > 100 µM (inactive)
[5]
  GI50: > 100 µM (inactive)
[6]
  GI50: > 100 µM (inactive)
[7]
  GI50: > 100 µM (inactive)
[8]
  GI50: > 100 µM (inactive)
[9]
  GI50: > 100 µM (inactive)
[10]
  GI50: > 100 µM (inactive)
[11]
  GI50: > 100 µM (inactive)
[13]
  GI50: > 100 µM (inactive)
[14]
  GI50: 55.1 µM (inactive)
[15]
  GI50: 89.7 µM (inactive)
[16]
  GI50: > 100 µM (inactive)
[17]
  GI50: 38.2 µM (inactive)
[18]
  GI50: > 100 µM
[20]
  GI50: > 100 µM (inactive)

## Cc1ccc(C(=O)CC2(O)C(=O)Nc3c(C)cc(Cl)cc32)cc1 (stereo not drawn)
[1]
  GI50: > 100 µM (inactive)
[2]
  GI50: > 100 µM (inactive)
[3]
  GI50: > 100 µM (inactive)
[4]
  GI50: > 100 µM (inactive)
[5]
  GI50: 35.7 µM (inactive)
[6]
  GI50: > 100 µM (inactive)
[7]
  GI50: 59.8 µM (inactive)
[8]
  GI50: > 100 µM (inactive)
[9]
  GI50: > 100 µM (inactive)
[10]
  GI50: > 100 µM (inactive)
[13]
  GI50: > 100 µM (inactive)
[14]
  GI50: 59.4 µM (inactive)
[15]
  GI50: > 100 µM (inactive)
[16]
  GI50: > 100 µM (inactive)
[17]
  GI50: > 100 µM (inactive)
[18]
  GI50: > 100 µM
[20]
  GI50: > 100 µM (inactive)

## Brc1ccc2c(C3CN[C@@H](c4c[nH]c5cc(Br)ccc45)CN3)c[nH]c2c1 (stereo partly drawn)
[1]
  GI50: 2.54 µM (inactive)
[2]
  GI50: 3.4 µM (inactive)
[3]
  GI50: 5.25 µM (inactive)
[4]
  GI50: 2.79 µM (inactive)
[5]
  GI50: 3.31 µM (inactive)
[6]
  GI50: 11.1 µM (inactive)
[7]
  GI50: 2.42 µM (inactive)
[8]
  GI50: 2.61 µM (inactive)
[9]
  GI50: 1.55 µM (inactive)
[10]
  GI50: 3.46 µM (inactive)
[11]
  GI50: 1.69 µM (inactive)
[13]
  GI50: 8.04 µM (inactive)
[14]
  GI50: 1.44 µM (inactive)
[15]
  GI50: 5.68 µM (inactive)
[16]
  GI50: 2.13 µM (inactive)
[17]
  GI50: 2.65 µM (inactive)
[18]
  GI50: 3.61 µM
[20]
  GI50: 10.4 µM (inactive)
